The results in this text go back to patent US9718828B2 (MERCK SHARP & DOHME CORP., priority 2011, dated 2017).

Molecules are shown by their SMILES.

Btk enzyme (His-Btk), sequence (Q06187 whole entry): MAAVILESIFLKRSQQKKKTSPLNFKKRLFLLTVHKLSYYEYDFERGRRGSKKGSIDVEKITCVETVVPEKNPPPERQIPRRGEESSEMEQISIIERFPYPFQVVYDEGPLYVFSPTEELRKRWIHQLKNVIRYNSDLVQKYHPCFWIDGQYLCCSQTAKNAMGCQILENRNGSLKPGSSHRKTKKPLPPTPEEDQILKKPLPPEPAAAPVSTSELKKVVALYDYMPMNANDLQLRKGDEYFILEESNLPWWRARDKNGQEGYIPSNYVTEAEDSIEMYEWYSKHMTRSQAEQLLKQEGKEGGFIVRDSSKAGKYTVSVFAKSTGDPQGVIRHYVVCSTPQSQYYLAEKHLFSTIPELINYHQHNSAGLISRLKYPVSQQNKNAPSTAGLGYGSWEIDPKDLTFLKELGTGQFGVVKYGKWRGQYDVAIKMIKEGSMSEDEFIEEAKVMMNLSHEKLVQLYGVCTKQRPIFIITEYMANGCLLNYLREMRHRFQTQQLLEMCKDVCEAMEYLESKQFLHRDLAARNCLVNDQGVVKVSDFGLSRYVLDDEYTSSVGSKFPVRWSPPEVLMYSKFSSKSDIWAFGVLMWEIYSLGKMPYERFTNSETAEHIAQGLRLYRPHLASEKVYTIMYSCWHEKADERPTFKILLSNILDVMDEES

This test addresses Btk enzyme (His-Btk) (Homo sapiens (Human), UniProt Q06187). Put plainly: Btk enzyme activity, IMAP fluorescence polarization assay (Assay Method A).
Consider `CC(C)(F)C(=O)N1CCC[C@@H](c2nc(-c3ccc(C(=O)Nc4cc(C5CC5)ccn4)cc3)c3c(N)nccn23)C1` [Example 64, (R)-4-(8-amino-3-(1-(2-fluoro-2-methylpropanoyl)piperidin-3-yl)imidazo[1,5-a]pyrazin-1-yl)-N-(4-cyclopropylpyridin-2-yl)benzamide], for which the EC50 is under 10 nM.

Compound `COCCOCCC(=O)N1CCC[C@@H](c2nc(-c3ccc(C(=O)Nc4cc(C(F)(F)F)ccn4)cc3)c3c(N)nccn23)C1` [Example 68, (R)-4-(8-amino-3-(1-(3-(2-methoxyethoxy)propanoyl)piperidin-3-yl)imidazo[1,5-a]pyrazin-1-yl)-N-(4-(trifluoromethyl)pyridin-2-yl)benzamide] had an EC50 of under 10 nM.

Consider `CSCCC(=O)N1CCC[C@@H](c2nc(-c3ccc(C(=O)Nc4cc(C(F)(F)F)ccn4)cc3)c3c(N)nccn23)C1` [Example 69, (R)-4-(8-amino-3-(1-(3-(methylthio)propanoyl)piperidin-3-yl)imidazo[1,5-a]pyrazin-1 yl)-N-(4-(trifluoromethyl)pyridin-2-yl)benzamide], for which the EC50 is under 10 nM.

Compound `CC1(C(=O)N2CCC[C@@H](c3nc(-c4ccc(C(=O)Nc5cc(C(F)(F)F)ccn5)cc4)c4c(N)nccn34)C2)CCC1` [Example 70, (R)-4-(8-amino-3-(1-(1-methylcyclobutanecarbonyl)piperidin-3-yl)imidazo[1,5-a]pyrazin-1-yl)-N-(4-(trifluoromethyl)pyridin-2-yl)benzamide] came in with a concentration for a half-maximal effect (EC50) of under 10 nM.

As for `CC(C)(O)CC(=O)N1CCC[C@@H](c2nc(-c3ccc(C(=O)Nc4cc(C(F)(F)F)ccn4)cc3)c3c(N)nccn23)C1` [Example 71, (R)-4-(8-amino-3-(1-(3-hydroxy-3-methylbutanoyl)piperidin-3-yl)imidazo[1,5-a]pyrazin-1-yl)-N-(4-(trifluoromethyl)pyridin-2-yl)benzamide], the EC50 was under 10 nM.

The compound `Nc1nccn2c([C@@H]3CCCN(C(=O)C(F)(F)F)C3)nc(-c3ccc(C(=O)Nc4cc(C(F)(F)F)ccn4)cc3)c12` [Example 72, (R)-4-(8-amino-3-(1-(2,2,2-trifluoroacetyl)piperidin-3-yl)imidazo[1,5-a]pyrazin-1-yl)-N-(4-(trifluoromethyl)pyridin-2-yl)benzamide] yielded an EC50 of under 10 nM.

`CS(=O)(=O)N1CC(C(=O)N2CCC[C@@H](c3nc(-c4ccc(C(=O)Nc5cc(C(F)(F)F)ccn5)cc4)c4c(N)nccn34)C2)C1` [Example 73, (R)-4-(8-amino-3-(1-(1-(methylsulfonyl)azetidine-3-carbonyl)piperidin-3 yl)imidazo[1,5-a]pyrazin-1-yl)-N-(4-(trifluoromethyl)pyridin-2-yl)benzamide] showed a concentration for a half-maximal effect (EC50) of under 10 nM.

Turning to `Cc1noc(C)c1C(=O)N1CCC[C@@H](c2nc(-c3ccc(C(=O)Nc4cc(C(F)(F)F)ccn4)cc3)c3c(N)nccn23)C1` [Example 74, (R)-4-(8-amino-3-(1-(3,5-dimethylisoxazole-4-carbonyl)piperidin-3 yl)imidazo[1,5-a]pyrazin-1-yl)-N-(4-(trifluoromethyl)pyridin-2-yl)benzamide], the EC50 is under 10 nM.

In turn, `Nc1nccn2c([C@@H]3CCCN(S(=O)(=O)C4CC4)C3)nc(-c3ccc(C(=O)Nc4cc(C(F)(F)F)ccn4)cc3)c12` [Example 75, (R)-4-(8-amino-3-(1-(cyclopropylsulfonyl)piperidin-3-yl)imidazo[1,5-a]pyrazin-1-yl)-N-(4-(trifluoromethyl)pyridin-2-yl)benzamide] displayed an EC50 of under 10 nM.

Take `CC(C)(C)C(=O)N1CCC[C@@H](c2nc(-c3ccc(C(=O)Nc4cc(C(F)(F)F)ccn4)cc3)c3c(N)nccn23)C1` [Example 76, (R)-4-(8-amino-3-(1-pivaloylpiperidin-3-yl)imidazo[1,5-a]pyrazin-1-yl)-N-(4-(trifluoromethyl)pyridin-2-yl)benzamide]: the EC50 is under 10 nM.

With `CS(=O)(=O)CCC(=O)N1CCC[C@@H](c2nc(-c3ccc(C(=O)Nc4cc(C(F)(F)F)ccn4)cc3)c3c(N)nccn23)C1` [Example 77, (R)-4-(8-amino-3-(1-(3-(methylsulfonyl)propanoyl)piperidin-3-yl)imidazo[1,5-a]pyrazin-1-yl)-N-(4-(trifluoromethyl)pyridin-2-yl)benzamide], the EC50 is under 10 nM.

The compound `CC(C)(CO)C(=O)N1CCC[C@@H](c2nc(-c3ccc(C(=O)Nc4cc(C(F)(F)F)ccn4)cc3)c3c(N)nccn23)C1` [Example 78, (R)-4-(8-amino-3-(1-(3-hydroxy-2,2-dimethylpropanoyl)piperidin-3-yl)imidazo[1,5-a]pyrazin-1-yl)-N-(4-(trifluoromethyl)pyridin-2-yl)benzamide] had an EC50 of under 10 nM.

On to `CN(C)C1(C(=O)N2CCC[C@@H](c3nc(-c4ccc(C(=O)Nc5cc(C(F)(F)F)ccn5)cc4)c4c(N)nccn34)C2)CCC1` [Example 79, (R)-4-(8-amino-3-(1-(1-(dimethylamino)cyclobutane-carbonyl)piperidin-3-yl)imidazo[1,5-a]pyrazin-1-yl)-N-(4-(trifluoromethyl)pyridin-2-yl)benzamide], for which the EC50 lay in the range of 10 to 100 nM.

Turning to `COCCOCCOCCOCCOCCOCCOCCOCCC(=O)N1CCC[C@@H](c2nc(-c3ccc(C(=O)Nc4cc(C(F)(F)F)ccn4)cc3)c3c(N)nccn23)C1` [Example 80, (R)-4-(3-(1-2,5,8,11,14,17,20,23-octaoxahexacosanepiperidin-3-yl)-8-aminoimidazo[1,5-a]pyrazin-1-yl)-N-(4-(trifluoromethyl)pyridin-2-yl)benzamide], the EC50 was under 10 nM.

For `Nc1nccn2c([C@@H]3CCCN(C(=O)C4(O)CCC4)C3)nc(-c3ccc(C(=O)Nc4cc(C(F)(F)F)ccn4)cc3)c12` [Example 81, (R)-4-(8-amino-3-(1-(1-hydroxycyclobutanecarbonyl)piperidin-3-yl)imidazo[1,5-a]pyrazin-1-yl)-N-(4-(trifluoromethyl)pyridin-2-yl)benzamide], the EC50 was under 10 nM.

`Cc1noc([C@H]2C[C@@H]2C(=O)N2CCC[C@@H](c3nc(-c4ccc(C(=O)Nc5cc(C(F)(F)F)ccn5)cc4)c4c(N)nccn34)C2)n1` [Example 82, 4-(8-amino-3-((R)-1-((1S,2S)-2-(3-methyl-1,2,4-oxadiazol-5-yl)cyclopropanecarbonyl)piperidin-3-yl)imidazo[1,5-a]pyrazin-1-yl)-N-(4-(trifluoromethyl)pyridin-2-yl)benzamide] displayed a concentration for a half-maximal effect (EC50) of under 10 nM.

In turn, `Nc1nccn2c([C@@H]3CCCN(C(=O)C4CC(F)(F)C4)C3)nc(-c3ccc(C(=O)Nc4cc(C(F)(F)F)ccn4)cc3)c12` [Example 83, (R)-4-(8-amino-3-(1-(3,3-difluorocyclobutanecarbonyl)piperidin-3-yl)imidazo[1,5-a]pyrazin-1-yl)-N-(4-(trifluoromethyl)pyridin-2-yl)benzamide] gave an EC50 of under 10 nM.

In turn, `Nc1nccn2c([C@@H]3CCCN(C(=O)C4CN(C(=O)c5ccccc5)C4)C3)nc(-c3ccc(C(=O)Nc4cc(C(F)(F)F)ccn4)cc3)c12` [Example 84, (R)-4-(8-amino-3-(1-(1-benzoylazetidine-3-carbonyl)piperidin-3-yl)imidazo[1,5-a]pyrazin-1-yl)-N-(4-(trifluoromethyl)pyridin-2-yl)benzamide] yielded an EC50 of under 10 nM.

The compound `NCCOCCOCCOCCOCCC(=O)N1CCC[C@@H](c2nc(-c3ccc(C(=O)Nc4cc(C(F)(F)F)ccn4)cc3)c3c(N)nccn23)C1` [Example 85, (R)-4-(8-amino-3-(1-(1-amino-3,6,9,12-tetraoxapentadecane)piperidin-3-yl)imidazo[1,5-a]pyrazin-1-yl)-N-(4-(trifluoromethyl)pyridin-2-yl)benzamide] came in with an EC50 of under 10 nM.

The compound `Nc1nccn2c([C@@H]3CCCN(C(=O)C4CSC4)C3)nc(-c3ccc(C(=O)Nc4cc(C(F)(F)F)ccn4)cc3)c12` [Example 86, (R)-4-(8-amino-3-(1-(thietane-3-carbonyl)piperidin-3-yl)imidazo[1,5-a]pyrazin-1-yl)-N-(4-(trifluoromethyl)pyridin-2-yl)benzarnide] yielded a 50% effective concentration (EC50) of under 10 nM.

Consider `Nc1nccn2c([C@@H]3CCCN(C(=O)[C@H]4CC(=O)N4)C3)nc(-c3ccc(C(=O)Nc4cc(C(F)(F)F)ccn4)cc3)c12` [Example 87, 4-(8-amino-3-((R)-1-((R)-4-oxoazetidine-2-carbonyl)piperidin-3-yl)imidazo[1,5-a]pyrazin-1-yl)-N-(4-(trifluoromethyl)pyridin-2-yl)benzamide], for which the concentration giving a half-maximal response (EC50) is under 10 nM.

`CN(C)C1(C(=O)N2CCC[C@@H](c3nc(-c4ccc(C(=O)Nc5cc(C(F)(F)F)ccn5)cc4)c4c(N)nccn34)C2)CC1` [Example 88, (R)-4-(8-amino-3-(1-(1-(dimethylamino)cyclopropane-carbonyl)piperidin-3 yl)imidazo[1,5-a]pyrazin-1-yl)-N-(4-(trifluoromethyl)pyridin-2-yl)benzamide] yielded an EC50 of 10 to 100 nM.

As for `CC(C)C1CC(C(=O)N2CCC[C@@H](c3nc(-c4ccc(C(=O)Nc5cc(C(F)(F)F)ccn5)cc4)c4c(N)nccn34)C2)C1` (stereo partly drawn) [Example 89, (R)-4-(8-amino-3-(1-(3-isopropylcyclobutanecarbonyl)piperidin-3-yl)imidazo[1,5-a]pyrazin-1-yl)-N-(4-(trifluoromethyl)pyridin-2-yl)benzamide], the EC50 is under 10 nM.

In turn, `Nc1nccn2c([C@@H]3CCCN(C(=O)C45CC(C4)C5)C3)nc(-c3ccc(C(=O)Nc4cc(C(F)(F)F)ccn4)cc3)c12` [Example 90, (R)-4-(8-amino-3-(1-(bicyclo[1.1.1]pentane-1-carbonyl)piperidin-3-yl)imidazo[1,5-a]pyrazin-1-yl)-N-(4-(trifluoromethyl)pyridin-2-yl)benzamide] displayed an EC50 of under 10 nM.

Compound `C=CC1(C(=O)N2CCC[C@@H](c3nc(-c4ccc(C(=O)Nc5cc(C(F)(F)F)ccn5)cc4)c4c(N)nccn34)C2)COC1` [Example 91, (R)-4-(8-amino-3-(1-(3-vinyloxetane-3-carbonyl)piperidin-3-yl)imidazo[1,5-a]pyrazin-1-yl)-N-(4-(trifluoromethyl)pyridin-2-yl)benzamide] registered an EC50 of under 10 nM.

In the case of `Nc1nccn2c([C@@H]3CCCN(C(=O)CC4CC4)C3)nc(-c3ccc(C(=O)Nc4ccccn4)cc3)c12` [Example 92, (R)-4-(8-amino-3-(1-(2-cyclopropylacetyl)piperidin-3 yl)imidazo[1,5-a]pyrazin-1-yl)-N-(pyridin-2-yl)benzamide], the EC50 was under 10 nM.
